Measurements from patent publication US20250018030A1, “PHARMACEUTICAL COMPOSITION FOR PROMOTING CANCER IMMUNOTHERAPY AND METHOD FOR PROMOTING CANCER IMMUNOTHERAPY” (China Medical University, priority 2023, published 2025).

Experiments:
[1] = test system: Pan18 cells; test: Orthotopic PDAC tumor model (Pan18 cells injected in pancreas); type: in vivo, mice; settings: for Survival, bioluminescent tumor growth and tumor weight: FIG. 5H-5J
Method: (§1) Monoclonal antibodies were purchased from BD Biosciences or eBioscience. For intracellular cytokine staining (ICS), cells were first restimulated by PMA/ionomycin for 5 hours in the presence of GolgiStop (BD Biosciences), followed by surface epitope staining markers before being fixed/permeabilized (BD Cytofix/Cytoperm™) and stained with antibodies targeting intracellular antigens. Cells were finally fixed with 1.5% formaldehyde for 10 minutes at room temperature and analyzed on a FACSVerse flow cytometer (BD Bioscience). Data were analyzed using FlowJo software (Tree Star Inc.).
For Pan18-subcutaneous implantation, 5×10^5 Pan18 cells were administered to wild-type (WT) or IL-17^−/− mice. Genipin (5 mg/kg, 10 mg/kg, or 30 mg/kg, i.p., every two days) was administered to Pan18-bearing mice for 3 weeks. For 3036-subcutanous implantation, 2×10^5 3036 cells were administered to WT mice. Genipin (10 mg/kg, i.p., every two days) and recombinant anti-IL-17 receptor antibody (αIL-17RA) (1 mg/kg, i.v., once a week) were administered to 3036-bearing mice for 3 weeks. Tumor volumes were evaluated every 2 days. For the orthotopic tumor modelling, mice pancreases were injected with 2×10^5 Pan18 cells and monitored for tumor growth weekly using IVIS kinetics imaging system (Caliper Life-Sciences). Genipin (10 mg/kg, i.p., every two days) or αIL-17RA (1 mg/kg, i.v., once a week) was administered 1 week after tumor implantation. Mice were sacrificed 35 days after tumor induction and tumors weighed. For spontaneous pancreatic cancer model, Cre-dependent conditional knockin mutations of KrasG12D Kras^+/LSLG12D mice (B6; 129-Kras2) were obtained from the Mouse Models of Human Cancer Consortium. Elas-CreERT; Kras^+/LSLG12D mice was generated by breeding Kras^+/LSLG12D mice with Elas-CreER mice obtained from the Level Transgenic Center. To induce the expression of Kras^+/LSLG12D in acinar cells, 5-week-old Elas-CreERT; Kras^+/LSLG12D male mice were injected with 100 μl of tamoxifen (20 mg/ml, i.p., three times per week) for 1 week. To induce chronic inflammation and tumors, 100 μl of cerulein (50 μg/ml, i.p., six times per week) (BACHEM) was given to the mice for 3 weeks. Then, the mice were injected with genipin (10 mg/kg, i.p., every two days) and αIL-17RA (1 mg/kg, i.v., once a week) until the end of the experiment, and overall survival was monitored. For genetically CD4/CD8-specific UCP2 deletion tumor modelling, we generated CD4Cre×UCP2^f/f mice by crossing loxP-UCP2-loxP mice with CD4Cre mice. CD4Cre×UCP2^f/f, WT, and loxP control mice underwent subcutaneous implantation of 2×10^5 Pan18 cells, followed by treatment with αIL-17RA (1 mg/kg, i.v., once a week) for 3 weeks. For melanoma modelling, IL-17/-and WT mice underwent subcutaneous implantation of 5×10^5 B16F10 cells, followed by treatment with genipin (10 mg/kg, i.p., every two days) for 3 weeks. For CD8 depletion tumor modelling, IL-17^−/− mice underwent subcutaneous implantation of 2×10^5 Pan18 cells, followed by treatment with genipin (10 mg/kg, i.p., every two days) and CD8 neutralizing antibody (5 mg/kg, i.v., once a week) for 3 weeks. Tumor volumes were evaluated every 3 days.

[2] = test system: Th1 cells; test: Cytokine staining of genipin-treated skewed Th1 cells; type: cell-based, Mouse; settings: data not shown
Method: Mouse lymph nodes and spleens were harvested, and naïve CD4 or CD8 T cells isolated via magnetic bead separation (STEMCELL Technologies) and activated in α-CD3 (10 μg/ml) and α-CD28 (1 μg/ml) pre-coated 96-well plates. Skewing conditions were as follows: Th1 cells/Tc1 cells ([…] 10 μ/ml α-IL-4), Th2 cells/Tc2 cells (20 ng/ml IL-4 and 10 μ/ml α-IFN-γ), Th17 cells/Tc17 cells (20 ng/ml IL-6, 1.25 ng/ml […], 20 ng/ml IL-1β, 20 ng/ml IL-23, 10 μg/ml α-IFN-γ and 10 μg/ml α-IL-4), and Treg cells (5 ng/ml TGF-β, 10 μg/ml α-IFN-γ and 10 μg/ml α-IL-4) in the indicated medium. Cells were cultured for 4-5 days followed by treatment with genipin (3.125 μM, 6.25 μM, 12.5 μM) or DMSO for 12-16 hours.
as §1

COC(=O)C1=CO[C@@H](O)[C@@H]2C(CO)=CC[C@H]12 [genipin]
Survival, bioluminescent tumor growth and tumor weight ([1]; IL-17−/− mice, genipin 10 mg/kg i.p. every two days, 3 weeks): significant benefit
Tumor-infiltrating population of Tc1 cells ([1]; IL-17−/− mice, genipin 10 mg/kg, FIG. 5K): increased
Tumor-infiltrating population of Th1 cells ([1]; IL-17−/− mice, genipin 10 mg/kg, FIG. 5L): increased
Tumor-infiltrating population of MDSC ([1]; IL-17−/− mice, genipin 10 mg/kg, FIG. 5N): increased
Survival, bioluminescent tumor growth and tumor weight ([1]; WT mice, genipin 10 mg/kg alone (singular UCP2 targeting)): no impact
IFN-γ in Th1 cells [2]: increased IFN-γ
